Source: PMC9101642 (Molecules, 2022)
Like-named read-outs stand apart in the source and are kept apart here. Marks after values point to notes of the source that are not given here.

Columns and labels:
ERα = target: T1, ERα (Homo sapiens, UniProt P03372); test: Fluorescence polarization competition assay: antagonistic potency and relative binding affinity; details: virtually screened NCI hits, Table S17; read-out: ERα (IC50)
T1 sequence (P03372 1-595): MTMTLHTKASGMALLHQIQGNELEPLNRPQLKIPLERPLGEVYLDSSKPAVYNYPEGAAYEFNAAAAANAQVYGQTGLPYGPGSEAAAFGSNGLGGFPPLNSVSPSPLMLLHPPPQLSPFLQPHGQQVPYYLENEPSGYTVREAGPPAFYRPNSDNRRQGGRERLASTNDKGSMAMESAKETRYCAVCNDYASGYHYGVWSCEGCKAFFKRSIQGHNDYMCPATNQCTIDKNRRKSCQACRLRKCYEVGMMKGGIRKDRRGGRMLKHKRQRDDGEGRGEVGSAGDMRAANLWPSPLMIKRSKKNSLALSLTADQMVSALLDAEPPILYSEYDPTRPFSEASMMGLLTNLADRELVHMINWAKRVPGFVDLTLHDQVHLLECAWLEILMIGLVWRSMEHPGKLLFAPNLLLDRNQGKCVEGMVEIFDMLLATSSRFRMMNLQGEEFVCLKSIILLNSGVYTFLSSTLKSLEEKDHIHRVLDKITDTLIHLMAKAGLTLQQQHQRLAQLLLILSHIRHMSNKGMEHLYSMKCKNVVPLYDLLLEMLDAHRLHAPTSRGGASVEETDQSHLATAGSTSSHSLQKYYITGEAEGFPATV

MCF-7 cell lines = test: MTT antiproliferative assay; assay type: cell-based, human
[1] = system: MRC-5 human lung fibroblast cell lines
MDA-MB-231 cell lines = test: MTT antiproliferative assay; assay type: cell-based, human
physchem = details: pH 7.4
[2] = Plasma protein binding determination; assay type: in vitro ADME, rat; details: rat, plasma
Experimental: (§1) Rats were housed at 3 per cage and
(§2) The breast cancer was induced after the MNU (Sigma Aldrich CAS No. 684-93-5) administration. An aqueous solution at a concentration of 10 mg/ml was made by wetting the NMU powder with 3% acetic acid and then dissolving it in 0.9% NaCl solution; a fresh solution was prepared for each injection. Rats were given intraperitoneal (i.p.) 50 mg/kg of MNU on the 50th day of age. Animals were divided into different groups with six animals in each group. Group I (intact control) received 0.9% NaCl solution.
(§3) Groups II-IV and V-VII were introduced with MNU. Two weeks after MNU treatment, animals were treated orally with synthesized compounds and control substances (5 and 50 mg/kg, for groups II-IV and V-VII, respectively) by gavage once per day for six weeks. Animals in the intact control group and untreated MNU group were given vehicle (Tween 80) according to the experimental protocol. […]
(§4) Upon finishing the treatment with synthesized compounds, animals were sacrificed, and plasma, serum, and liver samples were collected. […]
Rat plasma containing either 5 or 50 mg/kg bwt of the tested compounds was incubated at 37°C upper reservoir of the washed Centri-free YM-30 ultrafiltration units (Millipore, Bedford, MA) and then centrifuged for 20 min at 2,000 g. Aliquots of the ultrafiltrates and unfiltered incubation mixtures were analyzed for the total protein concentration by the bicinchoninic acid assay for protein concentration (BCA assay; Pierce, Rockford, IL).

[3] = rat, in vivo
[4] = both, Wistar, rat, in vivo, po
[5] = system: progesterone receptor (PR); test: ERα functional antagonism cell assay (PR as biomarker) in MCF-7; assay type: cell-based; details: Homo sapiens, MCF7; progesterone receptor as biomarker for ERα antagonism in MCF-7
ERβ = ERβ (Homo sapiens, UniProt Q92731); test: Fluorescence polarization competition assay: antagonistic potency and relative binding affinity; details: log of % relative binding affinity, estradiol = 100%
[6] = Serum biochemical markers after treatment of MNU-induced rats; assay type: in vivo, Wistar rats; details: for ALP (A/L) / ALT (A/L) / AST (U/L) / γ-GT (U/L): serum; for TBC: total bilirubin content
Experimental: as §1, §2, §3
Upon finishing the treatment with synthesized compounds, animals were sacrificed, and plasma, serum, and liver samples were collected.
Measurement of Serum Biochemical Markers
The activities of AST and ALT on 340 nm, and ALP on 405 nm, were determined by UV-Vis kinetic methods according to recommendations of the Expert Panel of the IFCC (International Federation of Clinical Chemistry). The colorimetric methods were used for the determination of total bilirubin (Jendrassik-Grof 550 nm method). All kinetic and colorimetric measurements were recorded using a Perkin-Elmer Lambda 25 UV/Vis spectrophotometer. […]

[7] = Liver oxidative stress markers after treatment of MNU-induced rats; assay type: in vivo, Wistar rats; details: rat, in vivo
Experimental: as §1, §2, §3, §4
Determination of Antioxidant Markers in Liver Homogenate
Rat liver samples were homogenized in phosphate buffer (5 mM, pH = 7.4) to give a 10% (w/v) liver homogenate and then centrifuged at 4000 rpm for 15 min at 4°C. The supernatant of liver homogenate was used for the estimation of reduced glutathione (GSH) and catalase (CAT) levels by the colorimetric method. The contents of malondialdehyde (MDA) in the supernatant of the liver homogenates were determined using 1,1,3,3-tetraethoxypropane as standard. Total protein concentrations were determined according to the method of Lowry using bovine serum albumin as […]

[8] = system: MNU-induced breast cancer; test: In vivo anticancer screening, MNU-induced mammary tumorigenesis; parameters: species or system female Wistar rats
[9] = system: Ishikawa endometrial adenocarcinoma cells; test: Antiproliferative assay; assay type: cell-based; details: Homo sapiens, growth inhibition
MCF-7 cells = test: Cell cycle distribution by flow cytometry; assay type: cell-based, human; details: 24 h
[10] = system: MNU-induced breast cancer tissue; test: Histopathology of breast sections; assay type: in vivo, Wistar rats
Text: The impact of selected leads on BC tissue was registered after their administration to experimental animals with MNU-induced BC (Figure 9 and Supplementary Material Figures S211–S218). […] In contrast to this, the administered leads were harmless in both concentrations, neutralizing the MNU-induced changes, judging by the lobuloalveolar units and cuboidal epithelial cells found (Figure 9C,D, and Supplementary Material Figures S214–S218). […]
Histopathological Studies
histopathological changes. […]

[11] = virtually screened NCI hits, Table S17, read-out: MCF-7 (IC50)
[12] = virtually screened NCI hits, Table S17, read-out: MDA-MB-231 (IC50)
[13] = dose 50 mg/kg (compounds per os after MNU; MNU alone i.p.)

Chain of ERβ (Q92731 whole entry): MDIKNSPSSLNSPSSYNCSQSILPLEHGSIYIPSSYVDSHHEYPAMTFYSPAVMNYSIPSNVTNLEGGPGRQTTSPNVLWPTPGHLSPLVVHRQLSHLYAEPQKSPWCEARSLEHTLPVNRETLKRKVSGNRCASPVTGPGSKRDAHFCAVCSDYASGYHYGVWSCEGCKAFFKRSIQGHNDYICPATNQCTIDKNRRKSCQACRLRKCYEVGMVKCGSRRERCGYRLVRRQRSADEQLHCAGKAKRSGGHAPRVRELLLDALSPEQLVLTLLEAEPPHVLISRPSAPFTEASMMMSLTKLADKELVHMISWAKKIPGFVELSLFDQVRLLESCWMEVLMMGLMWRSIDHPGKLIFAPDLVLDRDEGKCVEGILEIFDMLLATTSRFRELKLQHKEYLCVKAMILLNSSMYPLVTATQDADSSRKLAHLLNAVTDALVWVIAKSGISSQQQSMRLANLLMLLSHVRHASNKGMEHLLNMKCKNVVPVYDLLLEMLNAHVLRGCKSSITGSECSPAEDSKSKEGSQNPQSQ

O=C(c1ccccc1)c1ccccc1C(=O)c1ccccc1 [Compound 6145]
IC50 (ERα): 75.5 ± 6.46 µM | IC50 (MCF-7 cell lines; [11]): 93400 ± 11400 nM | IC50 [1]: > 100 µM | IC50 (MDA-MB-231 cell lines; [12]): > 100000 nM

O=C(O)c1ccccc1-n1c2ccccc2c2ccccc21 [Compound 10211]
IC50 (ERα): 66.9 ± 6.46 µM | IC50 [1]: > 100 µM | IC50 (MDA-MB-231 cell lines; [12]): > 100000 nM

c1ccc(-n2c3ccccc3c3ccccc32)cc1 [Compound 10416]
IC50 (ERα): 74.8 ± 6.46 µM | IC50 (MCF-7 cell lines; [11]): 89000 ± 11400 nM | IC50 [1]: > 100 µM | IC50 (MDA-MB-231 cell lines; [12]): > 100000 nM

O=c1c(-c2ccc(O)cc2)coc2cc(O)cc(O)c12 [Compound 36586]
IC50 (MCF-7 cell lines; [11]): > 100000 nM | IC50 [1]: > 100 µM | IC50 (MDA-MB-231 cell lines; [12]): > 100000 nM

COc1ccc(C(C#N)=C(c2ccccc2)c2ccccc2)cc1 [Compound 101789]
IC50 (ERα): 17.9 ± 1.34 µM | IC50 (MCF-7 cell lines; [11]): 25900 ± 11400 nM | IC50 [1]: 14.2 ± 11.4 µM | IC50 (MDA-MB-231 cell lines; [12]): > 100000 nM

O=C(c1ccc(OCCN2CCCCC2)cc1)c1c(-c2ccc(O)cc2)sc2cc(O)ccc12 [Ral., Raloxifene, reference compound]
logD at 30 min (physchem): 2.39 | fraction unbound at 5 mg/kg bwt [2]: 0.0185 | fraction unbound at 50 mg/kg bwt [2]: 0.019 | IC50 (MCF-7 cell lines; read-out: MCF-7 (IC50 nM)): 0.9 ± 0.19 nM | WL after MFD (day 1, mg) [3]: 310.54 ± 0.45 mg | WL after MFD (day 5, mg) [3]: 300.54 ± 0.48 mg | BIO ([4]; 5 mg/kg): 93 ^‡ | BIO ([4]; 50 mg/kg): 96 | IC50 [5]: > 100 nM | logRBA ERβ (ERβ): 1.42 ^† | ALP (A/L) ([6]; dose 5 mg/kg): 99.54±0.32 A/L | ALT (A/L) ([6]; dose 5 mg/kg): 50.14±0.35 A/L | AST (U/L) ([6]; dose 5 mg/kg): 53.57±0.43 U/L | γ-GT (U/L) ([6]; dose 5 mg/kg): 11.43 U/L | ALP (A/L) ([6]; dose 50 mg/kg): 106.43±0.54 A/L | ALT (A/L) ([6]; dose 50 mg/kg): 52.46±0.42 A/L | AST (U/L) ([6]; dose 50 mg/kg): 58.41±0.32 U/L | γ-GT (U/L) ([6]; dose 50 mg/kg): 12.35±0.31 U/L | TBC ([6]; dose 5 mg/kg): 18.53 | TBC ([6]; dose 50 mg/kg): 22.46 | CAT ([7]; 5 mg/kg): 10.73±0.32 | GSH ([7]; 5 mg/kg): 6.65 mg/g | SOD (U/mg) ([7]; 5 mg/kg): 6.89±0.56 U/mg | TBARS ([7]; 5 mg/kg): 2.31 ± 0.56 nmol/mg | TP ([7]; 5 mg/kg): 42.67 g/L | CAT ([7]; 50 mg/kg): 14.43±0.56 | GSH ([7]; 50 mg/kg): 5.54 ± 0.36 mg/g | SOD (U/mg) ([7]; 50 mg/kg): 8.46±0.23 U/mg | TBARS ([7]; 50 mg/kg): 2.63 ± 0.21 nmol/mg | TP ([7]; 50 mg/kg): 44.43 g/L | Tumor Burden (week) ([8]; dose 5 mg/kg per os after MNU): 3.11 ± 0.47 *^,†,‡ week | Tumor Latency (week) ([8]; dose 5 mg/kg per os after MNU): 8 * week | Tumor Volume (mm^3) ([8]; dose 5 mg/kg per os after MNU): 1.67 ± 0.31 *^,†,‡ mm^3 | Tumor Burden (week) [8, 13]: 2.91 ± 0.22 *^,†,§ week | Tumor Latency (week) [8, 13]: 13 *^,† week | Tumor Volume (mm^3) [8, 13]: 1.41 ± 0.54 *^,†§ mm^3 | IC50 (MDA-MB-231 cell lines; growth inhibition, 48 h, read-out: MDA-MB-231 (IC50 nM)): 93.41 ± 0.48 nM | IC50 (MDA-MB-231 cell lines; references in Table S17, read-out: MDA-MB-231 (IC50 nM)): 93.12 ± 0.24 nM | IC50 [9]: 0.97 ± 0.35 nM | Cell Cycle (%) G0/G1 (MCF-7 cells; 0.1 nM): 59.14 ± 0.54 *^,†,‡ % | Cell Cycle (%) G2/M (MCF-7 cells; 0.1 nM): 25.03 ± 0.35 *^,†,‡ % | Cell Cycle (%) S (MCF-7 cells; 0.1 nM): 15.83 ± 0.53 *^,†,‡ % | Cell Cycle (%) G0/G1 (MCF-7 cells; 1 nM): 66.52 ± 0.56 *^,†,‡ % | Cell Cycle (%) G2/M (MCF-7 cells; 1 nM): 17.11 ± 0.46 *^,†,‡ % | Cell Cycle (%) S (MCF-7 cells; 1 nM): 16.37 ± 0.46 *^,†,‡ % | breast section histopathology ([10]; 5 mg/kg of bwt): differentiated extralobular ducts (ED) | breast section histopathology ([10]; 50 mg/kg of bwt): differentiated extralobular ducts (ED)
